A short description of data set [1]: in vitro. On the set-up: species or system CCD841, HEK293. As to conditions: human, hb2 cells, read-out: HB-2 Cells Viability (%).
Data set [2] addresses T1, OTUB2 (OTUB2A) (Homo sapiens, UniProt Q96DC9).
T1 construct: full length residues 1-234, E. coli BL21(DE3)-R3, His tag removed by TEV, construct 27312 Da
T1 sequence (Q96DC9 1-234): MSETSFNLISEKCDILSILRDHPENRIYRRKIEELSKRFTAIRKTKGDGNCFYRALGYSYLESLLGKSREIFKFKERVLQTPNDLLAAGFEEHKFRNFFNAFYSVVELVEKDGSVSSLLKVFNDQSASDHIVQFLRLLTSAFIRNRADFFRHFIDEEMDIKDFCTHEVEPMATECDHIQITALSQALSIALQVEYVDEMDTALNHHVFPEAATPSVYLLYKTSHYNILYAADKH
On the set-up: Intact protein LC/MS covalent labelling, fragments in pools of five, 200 uM each, 4 °C. Particulars: 24 h, 4 °C, pool of five; 200 µM; covalent.

Data set [3] has as its target T2, PCAF (Homo sapiens, UniProt Q92831).
T2 construct: gene KAT2B
Also on record: Intact protein LC/MS covalent labelling, fragments in pools of five, 200 uM each, 4 °C. Particulars: 24 h, 4 °C, pool of five; 200 µM; covalent.

For data set [4], the target named is T3, NUDT7 (Homo sapiens, UniProt P0C024).
T3 construct: residues 14-235, E. coli, pNIC28-Bsa4, N-terminal His6 tag removed by TEV, construct 26672 Da
T3 sequence (P0C024 14-235): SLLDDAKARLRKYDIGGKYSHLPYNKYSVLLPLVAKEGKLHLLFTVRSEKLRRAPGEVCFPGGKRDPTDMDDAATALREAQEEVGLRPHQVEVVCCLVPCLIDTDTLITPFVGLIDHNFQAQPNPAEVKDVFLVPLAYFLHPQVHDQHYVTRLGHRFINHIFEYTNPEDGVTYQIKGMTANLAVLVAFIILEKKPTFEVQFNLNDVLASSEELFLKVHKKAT
Also on record: Intact protein LC/MS covalent labelling, fragments in pools of five, 200 uM each, 4 °C. Particulars: 24 h, 4 °C, pool of five; 200 µM; covalent.

Data set [5] addresses T4, BSA (Bos taurus, UniProt P02769).
T4 construct: gene ALB
On the set-up: Intact protein LC/MS covalent labelling, fragments in pools of five, 200 uM each, 4 °C. Particulars: 24 h, 4 °C, pool of five; 200 µM; covalent.

Data set [6] can be described thus: in vitro. On the set-up: species or system HB2, HEK293. Particulars: human, ccd841 cells.
The nature of data set [7]: in vitro. On the set-up: species or system HB2, CCD841. As to conditions: human, hek293 cells.

Read-outs that look alike come from different tables or passages of the source.

T2 sequence (Q92831 whole entry): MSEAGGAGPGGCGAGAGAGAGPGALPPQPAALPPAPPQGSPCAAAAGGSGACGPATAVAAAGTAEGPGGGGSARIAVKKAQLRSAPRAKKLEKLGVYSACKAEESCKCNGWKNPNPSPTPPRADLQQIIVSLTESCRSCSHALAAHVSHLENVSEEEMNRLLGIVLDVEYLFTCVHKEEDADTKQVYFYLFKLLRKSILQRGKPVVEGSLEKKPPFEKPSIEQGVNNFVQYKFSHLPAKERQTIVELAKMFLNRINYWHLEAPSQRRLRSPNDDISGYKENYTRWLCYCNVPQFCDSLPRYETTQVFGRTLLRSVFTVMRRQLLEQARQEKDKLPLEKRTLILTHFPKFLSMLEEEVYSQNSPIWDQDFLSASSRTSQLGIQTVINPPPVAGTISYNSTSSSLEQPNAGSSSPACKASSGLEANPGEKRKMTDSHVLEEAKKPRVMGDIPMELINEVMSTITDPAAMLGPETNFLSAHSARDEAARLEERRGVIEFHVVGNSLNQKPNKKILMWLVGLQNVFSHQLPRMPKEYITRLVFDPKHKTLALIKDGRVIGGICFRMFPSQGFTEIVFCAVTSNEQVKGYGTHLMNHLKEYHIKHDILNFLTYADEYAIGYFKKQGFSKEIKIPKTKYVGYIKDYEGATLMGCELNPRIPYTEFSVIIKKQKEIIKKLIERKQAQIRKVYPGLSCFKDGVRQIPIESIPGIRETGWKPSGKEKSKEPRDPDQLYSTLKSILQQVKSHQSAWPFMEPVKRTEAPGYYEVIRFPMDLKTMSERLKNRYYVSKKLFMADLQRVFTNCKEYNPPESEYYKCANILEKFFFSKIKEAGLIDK
T4 sequence (P02769 whole entry): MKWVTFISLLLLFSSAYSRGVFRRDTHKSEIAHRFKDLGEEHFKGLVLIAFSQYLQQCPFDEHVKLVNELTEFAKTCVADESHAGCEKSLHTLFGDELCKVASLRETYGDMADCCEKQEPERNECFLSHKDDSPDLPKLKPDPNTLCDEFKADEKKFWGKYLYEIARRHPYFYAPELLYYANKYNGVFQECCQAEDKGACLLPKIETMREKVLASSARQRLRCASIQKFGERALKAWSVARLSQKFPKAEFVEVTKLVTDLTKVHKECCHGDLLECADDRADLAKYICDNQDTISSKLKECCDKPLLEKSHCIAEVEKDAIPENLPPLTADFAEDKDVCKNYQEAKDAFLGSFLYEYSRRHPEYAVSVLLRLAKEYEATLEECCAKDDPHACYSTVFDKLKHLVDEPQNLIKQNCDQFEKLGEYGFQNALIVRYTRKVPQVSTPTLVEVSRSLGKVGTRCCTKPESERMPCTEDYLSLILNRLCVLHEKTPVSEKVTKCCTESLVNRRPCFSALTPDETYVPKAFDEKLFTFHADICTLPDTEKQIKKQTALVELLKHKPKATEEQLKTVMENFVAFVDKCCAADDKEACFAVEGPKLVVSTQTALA

The term viability denotes a read-out of living cells in per cent, often relative to untreated cells. Turning to `COC(=O)c1c(NC(=O)CCl)sc2c1CCCC2` [PCM-0102143], the viability at 48 h, 10 µM in data set [1] amounted to 31.6%; in data set [6], 68.1%; in data set [7], 8.6%. In data set [2], this compound showed an OTUB2 of 0.05. The PCAF in data set [3] came out at 0. This compound returned an NUDT7 in data set [4] of 0.39. This compound also returned a BSA in data set [5] of 0.

Turning to `O=C(CCl)NC(=O)c1cccs1` [PCM-0102222], the figures for the viability at 48 h, 10 µM in data set [1], in data set [6] and in data set [7] were 110%, 105% and 109%, respectively. In data set [2], this compound displayed an OTUB2 of 0. Also, in data set [3], the PCAF amounted to 0. The compound also displayed an NUDT7 in data set [4] of 0. In data set [5], this compound returned a BSA of 0.2.

For the compound `CN(Cc1cccs1)C(=O)CCl` [PCM-0102636], the viability at 48 h, 10 µM in data set [1] turned out to be 11.3%; in data set [6], 57.7%; in data set [7], 7%. Also, the OTUB2 in data set [2] stood at 0. The compound further came in with a PCAF in data set [3] of 0. The compound also displayed an NUDT7 in data set [4] of 0.17. In data set [5], this compound came in with a BSA of 0.

Turning to `O=C(CCl)NNC(=O)c1ccccc1Cl` [PCM-0102954], the figures for the viability at 48 h, 10 µM in data set [1], in data set [6] and in data set [7] were 91.9%, 72.3% and 91.3%, respectively. This compound gave an OTUB2 in data set [2] of 0.8. Further, the PCAF in data set [3] is 0. The same compound had an NUDT7 in data set [4] of 0. The compound further showed a BSA in data set [5] of 0.

Consider `O=C(CCl)N1CCN(c2ccc([N+](=O)[O-])cc2)CC1` [PCM-0102094], for which the results for the viability at 48 h, 10 µM in data set [1], in data set [6] and in data set [7] were 1.2%, 9.2% and 1.3%, respectively. Also, in data set [2], the OTUB2 turned out to be 0. Besides, the PCAF in data set [3] was determined as 0. The compound further displayed an NUDT7 in data set [4] of 0.27. In data set [5], the BSA is 0.

As to `CC(=O)c1ccc(N2CCN(C(=O)CCl)CC2)c(F)c1` [PCM-0102273], the figures for the viability at 48 h, 10 µM in data set [1], in data set [6] and in data set [7] were 4.9%, 38.5% and 2.2%, respectively. In data set [2], this compound yielded an OTUB2 of 0. In data set [3], this compound registered a PCAF of 0. In addition, the NUDT7 in data set [4] is given as 0.2. For the same compound, in data set [5], the BSA came to 0.

In the case of `C=CC(=O)Nc1cccc(F)c1C` [PCM-0102413], the viability at 48 h, 10 µM is 100% in data set [1], 86% in data set [6] and 86.8% in data set [7]. The compound further showed an OTUB2 in data set [2] of 0. In addition, in data set [3], the PCAF is recorded as 0. Further, the NUDT7 in data set [4] was 0. Moreover, in data set [5], the BSA is reported as 0.

Take `CC(C)(C)C(=O)NNC(=O)CCl` [PCM-0102855]: the viability at 48 h, 10 µM is 98.2% in data set [1], 93.1% in data set [6] and 87.8% in data set [7]. For the same compound, the OTUB2 in data set [2] is recorded as 0. Further, in data set [3], the PCAF is given as 0. The compound also registered an NUDT7 in data set [4] of 0.07. The same compound registered a BSA in data set [5] of 0.

With `C=CC(=O)N1CC2CC3CC2C1C3OC` (stereo not drawn) [PCM-0102649], the viability at 48 h, 10 µM in data set [1] was determined as 107%; in data set [6], 118%; in data set [7], 117%. The compound also showed an OTUB2 in data set [2] of 0.15. Also, in data set [3], the PCAF amounted to 0. Further, the NUDT7 in data set [4] turned out to be 0. This compound also showed a BSA in data set [5] of 0.

Turning to `C=CC(=O)NCC1CC12CCOCC2` (stereo not drawn) [PCM-0102481], the values for the viability at 48 h, 10 µM in data set [1], in data set [6] and in data set [7] were 97%, 110% and 103%, respectively. In data set [2], the OTUB2 worked out at 0. In addition, in data set [3], the PCAF is 0. Further, the NUDT7 in data set [4] is 0. The same compound showed a BSA in data set [5] of 0.

Consider `O=C(CCl)N1CCCc2cc([N+](=O)[O-])ccc21` [PCM-0102188], for which the viability at 48 h, 10 µM in data set [1] came out at 19.6%; in data set [6], 32.3%; in data set [7], 46.6%. The same compound registered an OTUB2 in data set [2] of 0.12. Further, the PCAF in data set [3] was 0. In data set [4], this compound yielded an NUDT7 of 0.09. The compound further had a BSA in data set [5] of 0.

For `Cl.O=C(CCl)N1CCN(c2cccc(Cl)c2)CC1` [PCM-0103032], the values for the viability at 48 h, 10 µM in data set [1], in data set [6] and in data set [7] were 12%, 71.1% and 58.5%, respectively. This compound came in with an OTUB2 in data set [2] of 0.21. The compound also returned a PCAF in data set [3] of 0. In data set [4], the NUDT7 is 0.22. The compound further gave a BSA in data set [5] of 0.

Take `C=CC(=O)N1CCCC(NC(=O)c2ccc(C(F)(F)F)cc2)C1` (stereo not drawn) [PCM-0102607]: the viability at 48 h, 10 µM was 98.9% in data set [1], 100% in data set [6] and 114% in data set [7]. This compound also returned an OTUB2 in data set [2] of 0. In data set [3], this compound displayed a PCAF of 0. The NUDT7 in data set [4] is 0. Besides, in data set [5], the BSA is on record as 0.

Turning to `O=C(CCl)Nc1nc(-c2ccc(F)cc2)cs1` [PCM-0102809], the viability at 48 h, 10 µM in data set [1] amounted to 5.1%; in data set [6], 63.1%; in data set [7] it was 1.7%. Besides, the OTUB2 in data set [2] was 0.21. This compound registered a PCAF in data set [3] of 0. The NUDT7 in data set [4] is listed as 0.37. The BSA in data set [5] is given as 0.

With `C=CC(=O)N1CCCC1c1cc(C)on1` (stereo not drawn) [PCM-0102683], the values for the viability at 48 h, 10 µM in data set [1], in data set [6] and in data set [7] were 103%, 101% and 121%, respectively. Further, the OTUB2 in data set [2] is on record as 0.12. In data set [3], this compound yielded a PCAF of 0. The NUDT7 in data set [4] is listed as 0. The compound also came in with a BSA in data set [5] of 0.

Consider `O=C(CCl)Nc1cc2[nH]c(=O)[nH]c2cc1Br` [PCM-0102388], for which the results for the viability at 48 h, 10 µM in data set [1], in data set [6] and in data set [7] were 11.4%, 38.6% and 1.2%, respectively. In addition, the OTUB2 in data set [2] was 0.56. In data set [3], this compound registered a PCAF of 0. Also, the NUDT7 in data set [4] was determined as 0. Moreover, the BSA in data set [5] was determined as 0.

As to `O=C(CCl)N(C1=CCCCC1)C1CC1` [PCM-0102745], the viability at 48 h, 10 µM in data set [1] was found to be 96.2%; in data set [6], 88.3%; in data set [7], 98.7%. This compound also gave an OTUB2 in data set [2] of 0. The same compound had a PCAF in data set [3] of 0. In data set [4], this compound showed an NUDT7 of 0. Also, in data set [5], the BSA is on record as 0.

As for `O=C(CCl)Nc1c(Cl)cc(Cl)cc1C(=O)O` [PCM-0102576], the viability at 48 h, 10 µM came to 100% in data set [1], 105% in data set [6] and 100% in data set [7]. In addition, the OTUB2 in data set [2] was determined as 0. For the same compound, the PCAF in data set [3] is 0. The compound further came in with an NUDT7 in data set [4] of 0. In data set [5], this compound came in with a BSA of 0.

`O=C(CCl)N1CCSc2ccccc21` [PCM-0102415]: the viability at 48 h, 10 µM in data set [1] is 30.2%; in data set [6], 60.6%; in data set [7], 22.4%. The same compound gave an OTUB2 in data set [2] of 0.16. In data set [3], this compound came in with a PCAF of 0. The NUDT7 in data set [4] came to 0.1. For the same compound, the BSA in data set [5] was 0.

As for `O=C1CN(C(=O)CCl)c2ccc(C(F)(F)F)cc2N1` [PCM-0102289], the viability at 48 h, 10 µM is 89.3% in data set [1], 96.4% in data set [6] and 94.7% in data set [7]. Also, the OTUB2 in data set [2] turned out to be 0. The same compound yielded a PCAF in data set [3] of 0. Also, the NUDT7 in data set [4] is listed as 0. Further, in data set [5], the BSA came to 0.

Take `O=C(CCl)N1CCN(S(=O)(=O)c2ccc(F)cc2)CC1` [PCM-0102237]: the viability at 48 h, 10 µM in data set [1] is 78.8%; in data set [6] it was 77%; in data set [7], 66.9%. This compound also displayed an OTUB2 in data set [2] of 0. The PCAF in data set [3] is reported as 0. Further, the NUDT7 in data set [4] is recorded as 0.06. Further, the BSA in data set [5] came to 0.

In the case of `C=CC(=O)N1CCC(c2nc(C(F)(F)F)cs2)CC1` [PCM-0102525], the viability at 48 h, 10 µM in data set [1] amounted to 95.8%; in data set [6], 128%; in data set [7] it was 96.6%. Also, the OTUB2 in data set [2] amounted to 0. Moreover, the PCAF in data set [3] was found to be 0. For the same compound, the NUDT7 in data set [4] is listed as 0. In data set [5], the BSA is given as 0.

For `O=C(CCl)Nc1ccc(Cl)cc1` [PCM-0102120], the viability at 48 h, 10 µM was 16.7% in data set [1], 55.2% in data set [6] and 2.7% in data set [7]. The compound also gave an OTUB2 in data set [2] of 0.23. In data set [3], the PCAF is listed as 0. This compound displayed an NUDT7 in data set [4] of 0.18. This compound also returned a BSA in data set [5] of 0.

Regarding `CC(C)n1nccc1NC(=O)CCl.Cl` [PCM-0102472], the values for the viability at 48 h, 10 µM in data set [1], in data set [6] and in data set [7] were 92.7%, 107% and 101%, respectively. The same compound displayed an OTUB2 in data set [2] of 0. In data set [3], this compound had a PCAF of 0. The compound also came in with an NUDT7 in data set [4] of 0. Moreover, the BSA in data set [5] worked out at 0.
